The target in one assay is T1, PARP1 (Homo sapiens, UniProt P09874).
T1 construct: purchased Trevigen, Gaithersburg, Md
Put plainly: Colorimetric PARP1 activity assay (Trevigen), IC50 determination. In kind it is biochemical. The procedure: A commercially available colorimetric assay (Trevigen, Gaithersburg, Md.) was used to measure PARP activity in vitro in the presence of inhibitors. […] All experiments were carried out in triplicate. […] All reaction mixtures were adjusted to a final volume of 50 μL and a maximum final concentration 0.4% DMSO in assay buffer. The remainder of the assay was performed according to the manufacturer's instructions. PARP activity was measured by absorbance at 450 nm in each well using a Safire 2 microplate reader (Tecan Group, Männedorf, Switzerland). IC50 values were calculated using Prism software (GraphPad, La Jolla, Calif.).
A commercially available colorimetric assay (Trevigen, Gaithersburg, Md.) was used to measure PARP activity in vitro in the presence of inhibitors. […] All experiments were carried out in triplicate. […] All reaction mixtures were adjusted to a final volume of 50 μL and a maximum final concentration 0.4% DMSO in assay buffer. The remainder of the assay was performed according to the manufacturer's instructions. PARP activity was measured by absorbance at 450 nm in each well using a Safire2 microplate reader. IC50 values were calculated using the Prism software package.

For the next assay, the system named is PARP1/PARP2. Kind of assay: Comparison of AZD2281-BODIPY FL uptake and PARP1/PARP2 expression in cell lines. In kind it is cell-based. The conditions noted are these: fixed cells, 20 minutes incubation. The procedure:
RAW 264.7, Panc-1, MIA Paca2, A2780, OVCAR429, UCI 101, UCI 107, SKOV-3, OVCAR-3, and OV-90 cells (200 μL, 35,000 cells/mL) were each seeded in their respective growth medium on 96-well plates and allowed to attach for 48 hours. […] Cells were then fixed with paraformaldehyde (4% in PBS) and washed with ice cold PBS/0.1% Triton X-100/0.5% bovine serum albumin (3×200 μL, 3rd wash left for 30 min). Cells were incubated with anti-PARP-1/2 Rab (1:50; SCBT, Santa Cruz, Calif.) at 4° C. overnight. Cells were washed with PBS/0.1% Triton X-100 (3×200 μL) before stained with secondary IgG-Cy5 Gab (1:100; Millipore, Billerica, Mass.) for 3 h at 4° C. Cells were then washed with PBS (1×, 200 μL), stained with Hoechst (Invitrogen, Carlsbad, Calif.) and blue whole cell stain (Thermo Scientific, Waltham, Mass.) for 30 minutes at room temperature, and washed with PBS (3×, 200 μL) before imaging and quantification of the respective fluorescence signals.

For assay [1], the system named is HT-1080 cells expressing H2B-apple. Kind of assay: Intravital imaging, window chamber mice with HT-1080 H2B-apple cells. Format: in vivo. The procedure:
For the in vivo studies, mice with window chambers were implanted with 1 million HT-1080 cells expressing H2B-apple fluorescence protein. 75 nmol of AZD2281-BODIPYFL were dissolved in 75 μL of 1:1:DMAC:solutol and 75 μL of PBS and injected via tail vein. Images of the vessels were taken using a 20× water immersion objective on a laser scanning confocal microscope while the mouse was anesthetized with isoflurane.

The subject of another assay is HT1080 cells. Kind of assay: Life cell imaging, in vitro uptake and clearance kinetics. In kind it is cell-based. The procedure:
For in vitro kinetic studies, HT1080 cells were labeled with a 1 μM concentration of AZD2281 fluorophore conjugate in cell culture medium and imaged on an inverted Deltavision epifluorescence microscope using a 37° C. heated stage and 5% CO2 atmosphere for various times. After subtracting the background fluorescence, the data were fitted to an exponential association curve. […] Cells were washed twice in cell culture media and imaged continuously (BODIPYFL conjugate) or after various time points (BODIPY578 and BODIPY650). The loss in fluorescence was fitted to a biexponential decay curve.

The test system of assay [2] is SKOV-3, MIA Paca2, A2780, Panc-1 tumors. Put plainly: Tumor versus muscle fluorescence uptake in Nu/Nu mice, excised tissues. Format: in vivo. The following applies: 75 nmol via tail vein, 45 minutes. The procedure: For ^18F-AZD2281 standardized uptake values, five Nu/Nu mice each received four subcutaneous injections containing SKOV-3, MIA Paca2, A2780, or Panc-1 cells in the flanks and shoulders (2.5×10^6 cells in 100 μL 70:30 PBS/BD matrigel per injection) (BD Biosciences, Bedford, Mass.). Tumors were allowed to grow for two weeks before imaging. 75 nmol of AZD2281-BODIPYFL were dissolved in 75 μL of 1:1:DMAC:solutol and 75 μL of PBS and injected via tail vein. The agent was allowed to circulate and clear for 45 minutes, before the mice were sacrificed, tumors and muscle tissue excised and the relative fluorescence uptake of tissues quantified against mice which were injected with just 1:1:DMAC:solutol.

For the next assay, the system named is MDA-MB-436 cells. Kind of assay: AZD2281-TCO / Texas Red-Tz bioorthogonal reaction and imaging in live MDA-MB-436 cells. The following applies: sequential AZD2281-TCO (7)/Texas Red-Tz (8). In kind it is cell-based. The procedure: Cells were then incubated with Texas Red-Tz (8) (25 μL, 20 μM) for 20 minutes (37° C.) before the medium was removed and cells were washed (1×, medium, 500 μL). […] Cells were washed with PBS (3×500 μL), fixed with paraformaldehyde (4% in PBS) and washed with PBS (3×500 μL, time between each wash=5 minutes). PBS was removed and cells mounted using Prolong Gold (Invitrogen, Carlsbad, Calif.) before imaging.
Cells were then incubated with Texas Red-Tz (8) (25 μL, 20 μM) for 20 minutes (37° C.) before the medium was removed and cells were washed (1×, medium, 500 μL). […] Cells were washed with PBS (3×500 μL), fixed with paraformaldehyde (4% in PBS) and washed with PBS (3×500 μL, time between each wash=5 min). […]
Cells were observed on a Nikon 80i (Nikon, Tokyo JP) microscope equipped with an ImagEM camera (Hammamatsu Photonics, Tokyo JP). […] For each image, both cell structures and nuclei structures have been obtained using the appropriate fluorescence filters and appropriate excitation signal levels to avoid collecting auto-fluorescence. […] Within each image and for each cell, the fluorescence signal for the total cell and the signal in the nuclear area was calculated using the corresponding mask as a spatial filter. […] The ratio of the fluorescent signal in the cytosol region over the signal in the nuclear region was then calculated. […]

In a further assay the test system is MDA-MB-436 tumors. Kind of assay: PET-CT imaging of MDA-MB-436 tumor-bearing mice, with and without AZD2281. In kind it is in vivo. The conditions noted are these: 1 mg AZD2281 BID, then re-injection of probe. The procedure:
Non-tumor bearing Nu/Nu mice were injected with (6^18F) and used for organ distribution immediately after injection over a time period of 2 hours. Tumor-bearing mice received s.c. injections with 5×10^6 MDA-MB-436 cells (American Type Culture Collection) in Matrigel (BD Biosciences) into each flank and underwent imaging 7 days later (injection of (6^18F) and immediate imaging over a time period of 2 hours). All mice were anesthetized (isoflurane 1.5%; O2 2 L/min) during imaging with a gas delivery system integrated into a multimodal imaging cartridge. All animal experiments were approved by Massachusetts General Hospital's Institutional Review Committee.
Images were acquired on the Siemens Inveon PET-CT. Each PET acquisition was 120 minutes in duration. PET was reconstructed from 600 million coincidental 511 keV photon counts on a series of LSO (lutetium oxyorthosilicate) scintillating crystals. Counts were rebinned in 3D by registering photons spanning no more than 3 consecutive rings and reconstructed into sinograms using a high resolution Fourier Rebin algorithm. Sinograms also yielded a 3D mapping of positron signal using a 2D filtered back-projection algorithm and a Ramp filter with a Nyquist cut-off of 0.5. […] Data are expressed as standard uptake values (SUV), which normalizes activity measurements to body weight and injected activity. […]

A further assay deals with A2780 tumors. Kind of assay: Non-invasive monitoring of treatment response in tumor-bearing Nu/Nu mice (SUV). Format: in vivo. The conditions noted are these: treatment with Olaparib. The procedure: ^18F-AZD2281 was synthesized as described herein. Nu/Nu mice bearing either A2780 tumors (treatment response) or A2780, Paca2, Panc1 and SKOV3 (differential uptake) were injected with the hot probe (500-750 μCi) and imaged ˜1.5 hours thereafter. Treatment consisted of injection of 0.5-1.0 mg AZD2281 (Olaparib) 18 hours before imaging (ip, interperitoneal) or ˜1.5-3.5 hours before imaging (iv, intravenous). Uptake was determined non-invasively by drawing SUVs (Standard Uptake Values).

[3] abbreviates: 1 μM, HT1080, exponential association fit.
Where [4] appears, read: labeled at 1 μM for 1 hour, washed, biexponential decay fit.

The term IC50 denotes the point on the concentration scale where inhibition reaches its midpoint.

Where two headings read alike, the source gives them in different places.

T1 sequence (P09874 whole entry): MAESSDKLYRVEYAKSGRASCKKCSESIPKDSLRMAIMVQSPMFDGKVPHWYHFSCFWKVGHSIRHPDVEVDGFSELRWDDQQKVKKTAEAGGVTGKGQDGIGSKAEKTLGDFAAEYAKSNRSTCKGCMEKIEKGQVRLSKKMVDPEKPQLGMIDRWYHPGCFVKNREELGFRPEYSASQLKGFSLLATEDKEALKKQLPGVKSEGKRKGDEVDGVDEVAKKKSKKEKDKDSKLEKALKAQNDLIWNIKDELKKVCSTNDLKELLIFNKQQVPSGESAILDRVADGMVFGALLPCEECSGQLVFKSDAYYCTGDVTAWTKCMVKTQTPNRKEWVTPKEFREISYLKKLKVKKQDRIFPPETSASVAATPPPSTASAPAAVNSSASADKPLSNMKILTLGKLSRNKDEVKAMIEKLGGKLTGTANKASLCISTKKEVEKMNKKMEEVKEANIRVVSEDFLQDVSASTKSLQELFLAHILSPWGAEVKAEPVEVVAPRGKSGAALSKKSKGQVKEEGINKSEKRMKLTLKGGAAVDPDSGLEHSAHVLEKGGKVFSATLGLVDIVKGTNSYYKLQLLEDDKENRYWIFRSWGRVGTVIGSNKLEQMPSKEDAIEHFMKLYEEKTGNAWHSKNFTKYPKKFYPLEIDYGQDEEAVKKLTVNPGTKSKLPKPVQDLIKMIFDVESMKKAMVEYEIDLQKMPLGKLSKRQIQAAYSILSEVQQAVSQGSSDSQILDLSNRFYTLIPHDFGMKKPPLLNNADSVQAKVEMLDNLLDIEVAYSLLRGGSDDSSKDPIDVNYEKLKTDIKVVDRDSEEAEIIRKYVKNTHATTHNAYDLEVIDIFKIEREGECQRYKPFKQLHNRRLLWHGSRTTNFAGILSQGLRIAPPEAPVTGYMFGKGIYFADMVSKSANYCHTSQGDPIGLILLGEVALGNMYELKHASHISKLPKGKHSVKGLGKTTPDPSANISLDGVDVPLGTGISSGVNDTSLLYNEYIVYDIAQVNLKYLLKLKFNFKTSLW

The molecule `O=C(CF)N1CCN(C(=O)c2cc(Cc3n[nH]c(=O)c4ccccc34)ccc2F)CC1` [17^19F] came in with an IC50 against PARP1 of 5.2 ± 1.1 nM.

On to `Cc1cc(C)n2c1C=C1C=CC(CCC(=O)N3CCN(C(=O)c4cc(Cc5n[nH]c(=O)c6ccccc56)ccc4F)CC3)=[N+]1[B-]2(F)F` [AZD2281-BODIPY FL], for which the cellular localization result with PARP1/PARP2 is “localizes with the nucleus”. The “time after which non-specific uptake cleared, revealing nuclear uptake” value in assay [1] (75 nmol via tail vein) was found to be 1 h. The “distribution in tumor after iv injection” value in assay [1] (first in vascular system, then tumor cells) was “concentrates in each and every tumor cell of the tumor”. Further, in the assay on HT1080 cells (setting [3]), the “Uptake, Nucleus” value is recorded as “Nucleus = 1.1 min” and the “Uptake, Perinuclear” value was “Perinuclear = 1.2 min”. Besides, in the assay with HT1080 cells (setting [4]), the “Clearance (weighted), Nucleus” value is recorded as “Nucleus = slow” and the “Clearance (weighted), Perinuclear” value is “Perinuclear = 1.7 min”. Moreover, the “uptake in muscle compared to tumor tissues” value in assay [2] is reported as “very little of the compound gets taken up by muscle cells compared to the tumor tissues”.

As to `O=C(CCCC(=O)N1CCN(C(=O)c2cc(Cc3n[nH]c(=O)c4ccccc34)ccc2F)CC1)NCCNC(=O)C1C[C@@H]2C=C[C@H]1C2` (stereo partly shown) [AZD2281-NOB], the IC50 at PARP1 (Example 1, 0.5 units PARP HSA, 10 minutes, read-out: IC50) came out at 10.1 ± 1.3 nM.

Regarding `O=C(CCCC(=O)N1CCN(C(=O)c2cc(Cc3n[nH]c(=O)c4ccccc34)ccc2F)CC1)NCCNC(=O)OC1CC/C=C/CCC1` (stereo not shown) [AZD2281-TCO], the “spatial correlation of Texas Red staining with anti-PARP1 Mab staining” value in the assay with MDA-MB-436 cells was “excellent spatial correlation”.

On to `O=C(c1cc(Cc2n[nH]c(=O)c3ccccc23)ccc1F)N1CCN(C(=O)C2CC2)CC1` [AZD2281], for which the “effect on uptake of 18F-AZD2281 into tumors” value in the assay on MDA-MB-436 tumors is “inhibition of the probe s uptake into the tumors”.

In the case of `OC[C@H]1O[C@@H](O)[C@H]([18F])[C@@H](O)[C@@H]1O` [FDG], the “ability to distinguish between treated and untreated tumors (tumor/muscle signal intensity)” value with A2780 tumors is “not able”.

The record behind these values is patent US9649394B2, “Compositions and methods for in vivo imaging” (The General Hospital Corporation, priority 2010, dated 2017).
